Reference: US9808461B2, “Protection of renal tissues from ischemia through inhibition of the proliferative kinases CDK4 and CDK6” (The University of North Carolina at Chapel Hill, priority 2010, dated 2017)
Entries after “also recorded” stand apart in the source; their conditions may differ.

Legend:
[1] = test system: primary human renal proximal tubule epithelial cells; experiment: Cell cycle analysis (propidium iodide staining, flow cytometry); format: cell-based; conditions: 0, 10 nM, 30 nM, 100 nM, 300 nM or 1 μM for 16 hours
Experimental: Representative histograms of cell cycle analysis of primary human renal proximal tubule epithelial cells treated with varying concentrations (0 nM, 10 nM, 30 nM, 100 nM, 300 nM, or 1 μM) of 6-acetyl-8-cyclopentyl-5-methyl-2-(5-piperazin-1-yl-pyridin-2-ylamino)-8H-pyrido-[2,3-d]pyrimidin-7-one (PD0332991) for 16 hours. Cells were harvested, fixed, stained, and analyzed by flow cytometry. Data was fitted using Mod-Fit™ software from Verity (Verity Software House, Topsham, Me., United States of America). […] Cell cycle analysis of primary human renal proximal tubule epithelial cells treated with varying concentrations (0 nM, 10 nM, 30 nM, 100 nM, 300 nM, or 1 μM) of 6-acetyl-8-cyclopentyl-5-methyl-2-(5-piperazin-1-yl-pyridin-2-ylamino)-8H-pyrido-[2,3-d]pyrimidin-7-one (PD0332991) for 16 hours. Cells were harvested, fixed, stained, and analyzed by flow cytometry. Data was fitted using Mod-Fit™ software from Verity (Verity Software House, Topsham, Me., United States of America). […] Samples were processed and the DNA was stained with propidium iodide (PI) solution and analyzed by flow cytometry. FCS files from flow cytometer were further analyzed using cell cycle analysis software ModFit™ from Verity (Verity Software House, Topsham, Me., United States of America), where cell cycle fractions were calculated as a percentage of the whole population.

[2] = test system: primary human renal proximal tubule epithelial cells; experiment: Cell proliferation, CellTiter-Glo; format: cell-based; conditions: 10 nM to 3 μM, 72 hours post treatment
Experimental: Cells were treated with varying concentrations (0 nM, 10 nM, 30 nM, 100 nM, 300 nM, or 1 μM) of 6-acetyl-8-cyclopentyl-5-methyl-2-(5-piperazin-1-yl-pyridin-2-ylamino)-8H-pyrido-[2,3-d]pyrimidin-7-one (PD0332991) for 72 hours. Following incubation, cell proliferation was quantified using CellTiter-Glo® (Promega, Madison, Wis., United States of America). Data represent the mean of four replicates (relative light units, RLU)+/−standard deviation. Inhibition of CDK4/6 blocks the proliferation of normal human primary renal proximal tubule epithelial cells. These cells were seeded at an appropriate density in 96 well plates and incubated for 24 hours at 37° C. in a humidified incubator at 5% CO2. Cells were then exposed to a potent and selective CDK4/6 inhibitor, in this case PD0332991, across a broad dose range 24 hours later. The dose range explored is 0, 10 nM, 30 nM, 100 nM, 300 nM, 1 μM or 3 μM PD0332991. Seventy-two hours post exposure, the CDK4/6 inhibited cells were treated with CellTiter-Glo® (Promega, Madison, Wis., United States of America) using manufacturer's specifications. The plate was read in luminometer at 1 second/well. Results were placed in Microsoft Excel and analyzed.

[3] = test system: renal epithelial cells; experiment: BrdU incorporation into renal epithelial cells after ischemia reperfusion injury; format: in vivo, mice
Experimental: FIG. 3A is a schematic diagram showing a dosing schedule for studies of 5-bromo-2-deoxyuridine (BrdU) incorporation into epithelial cells following ischemic reperfusion injury after a single dosing of a CDK4/6 inhibitor. Mice were treated with 6-acetyl-8-cyclopentyl-5-methyl-2-(5-piperazin-1-yl-pyridin-2-ylamino)-8H-pyrido-[2,3-d]pyrimidin-7-one (PD0332991; 150 mg/kg) or vehicle (sodium lactate buffer) by oral gavage one hour before ischemic reperfusion injury. BrdU (100 mg/kg) was administered via i.p. injection 21 hours after injury. Mice were sacrificed 3 hours after the BrdU injection, and BrdU incorporation into the renal epithelial cells was quantified. […] Three hours following the second injection of BrdU, the mice were sacrificed and BrdU incorporation into the renal epithelial cells was quantified. […] Kidney cell proliferation following ischemia reperfusion injury (IRI) was monitored (based on BrdU incorporation in renal epithelial cells) following a one time, pre-IRI PD0332991 or vehicle (sodium lactate buffer) dosing as shown in FIG. 3A and following a two time (once pre-IRI and once post-IRI) PD0332991 or vehicle dosing as shown in FIG. 3B. […] BrdU positive (BrdU(+)) cells were quantified visually by counting the number of BrdU(+) cells in a field of kidney epithelial cells under magnification. […]

[4] = Serum creatinine after bilateral ischemia reperfusion injury; format: in vivo, mice; conditions: 150 mg/kg oral gavage 1 hour prior to bilateral IRI; N=9; vehicle group 2.27
Experimental: PD0332991 was dissolved in 50 mM sodium lactate buffer (pH 4.0) to a final concentration of 15 mg/mL. Mice were treated with a 150 mg/kg dose of PD0332991, or vehicle, 1 hour prior to ischemia reperfusion surgery by oral gavage. 8 week old male mice were anesthetized with pentobarbital sodium (60 mg/kg body weight, intraperitoneally) prior to surgery. Body temperatures were controlled at 36.5° C.-37.5° C. throughout the procedure. Bilateral flank incisions into the peritoneum allowed access to both kidneys. Kidneys were exposed and ischemia was induced by simultaneously clamping the renal pedicle of both kidneys with nontraumatic microaneurysm clamps (Roboz, Rockville, Md.). Clamped kidneys were placed back into the peritoneal cavity for 28 minutes, and clamps were then removed resulting in reperfusion injury. The flank incisions were closed with wound clips and the mice were allowed to recover in their home cages. […] Serum creatinine was measured by the Beckman Creatinine Analyzer 2, which utilizes a 10 mM picric acid solution mixed with a buffer containing 10 mM sodium borate, 240 mM sodium hydroxide, and 10 mM sodium dodecyl sulfate (SDS). Serum creatinine is measured against a creatinine standard and recorded as milligrams per deciliter.

CC(=O)c1c(C)c2cnc(Nc3ccc(N4CCNCC4)cn3)nc2n(C2CCCC2)c1=O [PD0332991, 6-acetyl-8-cyclopentyl-5-methyl-2-(5-piperazin-1-yl-pyridin-2-ylamino)-8H-pyrido-[2,3-d]-pyrimidin-7-one]
G1 cell cycle arrest [1]: induces a G1 arrest; also recorded: “clean” G1-arrest without evidence of cytotoxicity | cell cycle fractions (G0/G1, G2/M, S-phase) [1]: dose dependent increase in the G0/G1 fraction of the cell cycle was observed with a consummate decrease in both G2/M and S-phase fractions | cell proliferation (relative light units) compared to DMSO control [2]: clear dose dependent inhibition of cell proliferation; also recorded: blocks proliferation | BrdU(+) renal epithelial cells 24 hours after injury, versus vehicle ([3]; 150 mg/kg oral gavage one time, 1 hour before IRI (FIG. 3A schedule)): significantly less BrdU(+) cells; also recorded: prevents epithelial cells from entering S-phase | BrdU incorporation in renal epithelial cells 48 hours after injury, versus vehicle ([3]; 150 mg/kg oral gavage two doses, once pre-IRI and once post-IRI (FIG. 3B schedule)): less BrdU incorporation; also recorded: prevents epithelial cells from entering S-phase | average serum creatinine 24 hours after surgery [4]: 1.74 mg/dL
